Laboratory results reported in publication PMC5906549, “Cathelicidin-Derived Antimicrobial Peptides Inhibit Zika Virus Through Direct Inactivation and Interferon Pathway” (Frontiers in Immunology, 2018).
Peptide text beside a SMILES is read from it.

Test system: ZIKV strain MR766
Assay: Post-infection peptide treatment of ZIKV-infected human fetal astrocytes (RT-PCR and plaque-forming assay)
Type: cell-based, Zika virus
Conditions: human fetal astrocytes infected MOI 0.5 for 24 h, then peptide 10 µM for 24 h, N = 4; for Zika virions after post-infection treatment (plaque-forming assay): cell-free supernatants; for ZIKV RNA after post-infection treatment, compared with untreated ZIKV group: normalized to GAPDH
Protocol: Vero cells were plated into 12-well plates at 5 (10^5 cells/well the day before infection). On the day of infection, the monolayers of Vero cells were inoculated with 100 µL of 10-fold serial dilutions of viral stocks and incubated at 37 °C for 1 h. After viral inoculation, medium containing ZIKV particles was removed and 1 ml overlay containing 0.6% molecular biology grade agarose (Agarose Unlimited, Alachua, FL, USA) in Modified Eagle Medium (Gibco) with 2% FBS. Cells were maintained at 37°C in 5% CO2 for 4 days. On day 5, cells were fixed with 4% paraformaldehyde solution in PBS and stained with 1% crystal violet solution in 20% methanol in water. Viral plaques were photographed using a CanonScan 9950F scanner and each plaque was counted as a plaque-forming unit (PFU). Viral titer was calculated as PFU/[volume virus (mL) × (dilution factor)].
Total mRNA was isolated with TRIzol Reagent (Thermo Fisher Scientific) and RNeasy Mini Kit (QIAGEN Inc., Valencia, CA, USA) following the manufacturer’s recommendations. Two real-time RT-PCR methods were used for the current studies. First, SYBR Green-based RT-PCR assay was used to determine intracellular ZIKV RNA in Vero cells. For this assay, reverse transcription was performed using Verso cDNA synthesis Kit (Thermo Fisher Scientific) and 1 µg of total RNA in a 15-µL final volume. The RT-PCR analyses were performed using 7.5-µL SYBR Green PCR Master Mix (Thermo Fisher Scientific) with 0.5-µL cDNA, 1.5-µL H2O, 5.5-µL oligonucleotide primer pairs at 10 µM. Primers used were ZIKV RNA: forward sequence 5-[…]-3, reverse sequence 5-[…]-3; GAPDH: forward sequence 5-[…]-3, reverse sequence 5-GGCTGT […] GG-3. PCR program: 1, 50°C for 2 min; 2, 95°C for 2 min; 3, 95°C for 15 s; 4, specific annealing temperature for 15 s; 5, 72°C for 1 min. Steps 2–4 were repeated 40 times. All samples were amplified in triplicate for analysis. Relative ZIKV RNA levels were determined and standardized with a GAPDH internal control using comparative ΔΔCT method ([35]). Second, TaqMan-based RT-PCR assay was used to determine intracellular ZIKV RNA and other gene expressions in Figures 3–6 and extracellular ZIKV RNA in Figure 3. […] Relative ZIKV mRNA levels were determined and standardized with a GAPDH or 18-s rRNA endogenous control using comparative ΔΔCT method ([35]). All reference genes, including GAPDH, β-actin, and 18-s rRNA, detected identical changes of genes (Figure S1 in Supplementary Material). […] Quantitative genomic RNA from ZIKV (NR-1838DQ, ATCC) was used as a standard to calculate viral copies. […]
Figure 4 Antimicrobial peptides treatment post-infection is still effective in inhibiting Zika virus (ZIKV) infection. […] (B–D) At 24-h post-antimicrobial peptide treatment, RNA was isolated from cells and ZIKV RNA was determined through real-time RT-PCR. […]

Row | Compound | Zika virions after post-infection treatment (plaque-forming assay) | ZIKV RNA after post-infection treatment, compared with untreated ZIKV group
1 | CC[C@H](C)[C@H](NC(=O)[C@H](CCCCN)NC(=O)[C@H](CCCCN)NC(=O)[C@H](Cc1ccccc1)NC(=O)[C@H](CC(C)C)NC(=O)[C@H](CCCCN)NC(=O)[C@H](CCCCN)NC(=O)[C@H](Cc1ccccc1)NC(=O)[C@H](CCCCN)NC(=O)[C@H](CCCCN)NC(=O)[C@H](CCCNC(=N)N)NC(=O)[C@H](Cc1ccccc1)NC(=O)[C@H](CCCNC(=N)N)NC(=O)[C@H](CCCCN)NC(=O)[C@H](Cc1ccccc1)NC(=O)[C@H](CCCNC(=N)N)NC(=O)CN)C(=O)N[C@@H](CO)C(=O)O [BMAP-18] (H-GRFKRFRKKFKKLFKKIS-OH; N-terminus and C-terminus assumed) | fewer virions | trended downward; however, the difference was not significant
2 | CC[C@H](C)[C@H](NC(=O)[C@H](CCCNC(=N)N)NC(=O)[C@H](CCC(N)=O)NC(=O)[C@@H](NC(=O)[C@@H](NC(=O)[C@H](CCCNC(=N)N)NC(=O)[C@H](CCCCN)NC(=O)[C@H](Cc1ccccc1)NC(=O)CN)[C@@H](C)CC)C(C)C)C(=O)N[C@@H](CCCCN)C(=O)N[C@@H](CC(=O)O)C(=O)N[C@@H](Cc1ccccc1)C(=O)N[C@@H](CC(C)C)C(=O)N[C@@H](CCCNC(=N)N)C(=O)N[C@@H](CC(N)=O)C(=O)N[C@@H](CC(C)C)C(=O)N[C@H](C(N)=O)C(C)C [GF-17] (H-GFKRIVQRIKDFLRNLV-NH2; N-terminus and C-terminus assumed) | fewer virions | significantly decreased ZIKV RNA
